Measured values: paper PMC10142028, “Influence of Molecular Structure and Physicochemical Properties of Immunosuppressive Drugs on Micelle Formulation Characteristics and Cutaneous Delivery” (Pharmaceutics, 2023)
In brackets after ≈: the same amount, converted by molar mass. Entries after “also recorded” stand apart in the source; their conditions may differ. Where two headings read alike, the source gives them in different places.

Key:
[1] = Drug solubility in water and in aqueous solution of TPGS; format: physicochemical; conditions: for Improvement of drug water solubility by addition of 50 mg/mL TPGS: TPGS 50 mg/mL solution vs water; for solubility at 24 h: thermodynamic from solid; for Aqueous solubility: in words, measured experimentally
Protocol: The solutions were kept at room temperature during a 24 h period of stirring. The samples were then centrifuged and the supernatant was collected and diluted in ACN prior to a UHPLC-MS/MS analysis. All the samples were prepared in triplicate.

[2] = Drug content determination of micelle formulations (UHPLC-UV); format: physicochemical; conditions: for Drug content of Formulation 5: Formulation 5, corresponds to approximately 2.3 mg/mL; for Water solubility reached by polymeric micelle formulation: corresponding to approximately 4.5 mg/mL
Protocol: Micelle formulations were prepared using the thin-film hydration method. […] The acetone was slowly removed by rotary evaporation (Büchi Vac V-513 Rotavapor®; Flawil, Switzerland) until the formation of a uniform thin-film, which was left under the hood overnight and then hydrated with 4 mL of ultrapure water. After equilibration for 2 h, the micelle solution was centrifuged at 10,000 rpm for 15 min (Eppendorf Centrifuge 5804; Hamburg, Germany) to remove excess drug, and the supernatant was carefully collected.
The micelle formulation was optimized in order to reach a high drug loading. […] The formulation with the highest drug content, which satisfied reproducibility and stability criteria, was chosen for the subsequent in vitro release and skin delivery studies. Drug loading was determined by UHPLC-UV.
The amount of drug loaded in the micelles was quantified by UHPLC-UV. To ensure the complete destruction of the micelles and the release of encapsulated drug, samples were diluted in ACN prior to analysis. (1) Drug contentmgdrug/mLformulation=mass of drug in the formulationmg/volume of the formulationmL (2) Drug loadingmgdrug/gpolymer=drug in the formulationmg mL^−1/copolymer in the formulationg mL^−1 (3) Incorporation efficiency%=mass of drug incorporated in micellesmg/mass of drug introducedmg×100

[3] = Stability of the micelle solution after storage at 4 °C for 5 months; format: physicochemical; conditions: Formulation 6 (target 5 mg/mL), followed for 5 months
Protocol: Stability of the micelle solution was evaluated after storage at 4 °C for 5 months. Drug content and micelle size were determined at a series of time points (day 1, and then after 1, 2, 3, 4, and 5 months).

skin (porcine or human) = tested on: skin (porcine or human); design: method as in PMID 16176283, PMID 14698574; conditions: independent of skin origin (porcine or human) and formulation composition; cited from earlier work
skin proteins = tested on: skin proteins; design: method as in PMID 18524871; conditions: compared to TAC; cited from earlier work
[4] = source not given; cited from earlier work
Porcine ear skin [5] = test: Skin delivery in vitro under infinite dose conditions and cutaneous biodistribution (Franz diffusion cells); conditions: micelle solution 0.2%, 12 h; for Drug deposition in skin regions (comparison): porcine skin; for Permeation across the skin (concentration, under the limit of quantification): receptor phase
Protocol: (§1) Porcine ear skin was used for skin delivery studies and was supplied by a local abattoir (CARRE; Rolle, CH). Briefly, skin samples were processed with a Zimmer air dermatome (Münsingen, Switzerland) to obtain pieces with a thickness of ∼800 µm. Hair was removed carefully from the skin surface using clippers. Circular disks of 30 mm were then punched out (Berg & Schmid HK 500; Urdorf, Switzerland) and stored at −20 °C until use, for a maximum period of 3 months.
(§2) Porcine skin samples were mounted in Franz diffusion cells (Milian SA; Meyrin, Switzerland) with a formulation contact area of 2 cm^2. In the donor compartment, the optimal micelle solution 0.2% was applied under infinite dose conditions (500 µL/cm^2) during 12 h. The receptor compartment was filled with 10 mL of phosphate buffered saline at pH 7.4 containing 1% BSA. The receiver phase was stirred at 250 rpm and maintained at 32 °C throughout the experiment. […] After the experiment, 1 mL of this phase was withdrawn to quantify drug permeation. Samples were diluted in ACN to precipitate BSA. After centrifugation at 5000 rpm at 4 °C during 15 min, the permeation samples were analysed by UHPLC-MS/MS. Each skin sample was carefully cleaned with a cotton swab and a wash solution to remove the residual formulation from skin surface.
(§3) At the end of the experiment, a small area, 0.8 cm^2, was punched out from the 2 cm^2 skin samples. These skin discs were snap-frozen in isopentane cooled by liquid nitrogen, followed by cryotoming (Thermo Scientific CryoStarTM NX70; Reinach, Switzerland) to obtain two lamellae with a thickness of 20 µm and 19 lamellae with a thickness of 40 μm. […] Drug deposited in each lamella was extracted in 300 µL of ACN overnight with continuous stirring at room temperature. The extraction samples were centrifuged at 5000 rpm for 10 min and diluted prior to UHPLC-MS/MS analysis.

Porcine ear skin [6] = conditions: pig, 12 h, 0.2 %, pH 7.4
Protocol: as §1, §2, §3

[7] = aqueous solution of TPGS (50 mg/mL), aqueous with cosolvent or surfactant or cyclodextrin, Drug solubility at TPGS concentration (33 mM or 50 mg/mL), room temperature, 24 h
[8] = aqueous solution of TPGS (50 mg/mL), aqueous with cosolvent or surfactant or cyclodextrin, Solubility on simple addition of the drug in the aqueous solution of TPGS, TPGS 50 mg/mL
[9] = water, water, room temperature, 24 h stirring, read-out: Drug solubility in water

Solubility on simple addition of the drug in the aqueous solution of TPGS ([1]; TPGS 50 mg/mL)	Permeation across the skin (concentration, under the limit of quantification) (Porcine ear skin [6])	Structure (SMILES)	Improvement of drug water solubility by addition of 50 mg/mL TPGS [1]	solubility at 24 h [1, 7]	solubility at 24 h [1, 8]	Aqueous solubility [1]	solubility at 24 h [1, 9]	Drug content of Formulation 5 [2]	Water solubility reached by polymeric micelle formulation [2]	Stability of Formulation 6 in terms of drug content [3]	Permeation across the skin (comparison) (skin (porcine or human))	Affinity/binding to skin components (comparison) (skin proteins)	Ionizable [4]	Drug deposition in skin regions (comparison) (Porcine ear skin [5])	Permeation across the skin (concentration, under the limit of quantification) (Porcine ear skin [5])
–	–	CC[C@@H]1/C=C(\C)C[C@H](C)C[C@H](OC)[C@H]2O[C@@](O)(C(=O)C(=O)N3CCCC[C@H]3C(=O)O[C@H](/C(C)=C/[C@@H]3CC[C@H](Cl)[C@H](OC)C3)[C@H](C)[C@@H](O)CC1=O)[C@H](C)C[C@@H]2OC [PIM, pimecrolimus]	1943 fold	330 ± 31.2 µM (≈ 268 µg/mL)	300 µM (≈ 243 µg/mL)	Poor	0.17 ± 0.02 µM (≈ 0.138 µg/mL)	2.8 mM	5600 µM	remained stable during the 5 months	lower than TAC	stronger affinity with the components of the upper layers of the skin compared to TAC; also recorded: higher capacity-binding to other skin proteins	No	high percentage of PIM was delivered in the stratum corneum; also recorded: higher in the viable epidermis in comparison to SIR and TAC; also recorded: significantly higher in the upper region of the skin (20–180 µm)	< 3 ng/mL
1200 µM	< 3 ng/mL	CO[C@H]1C[C@@H]2CC[C@@H](C)[C@@](O)(O2)C(=O)C(=O)N2CCCC[C@H]2C(=O)O[C@H]([C@H](C)C[C@@H]2CC[C@@H](O)[C@H](OC)C2)CC(=O)[C@H](C)/C=C(\C)[C@@H](O)[C@@H](OC)C(=O)[C@H](C)C[C@H](C)/C=C/C=C/C=C/1C [SIR, sirolimus]	147 fold	1210 ± 124 µM (≈ 1110 µg/mL)	–	Poor	8.24 ± 0.22 µM (≈ 7.53 µg/mL)	2.5 mM	4900 µM	became unstable after 4 months	–	–	No	–	–
–	–	C=CC[C@@H]1/C=C(\C)C[C@H](C)C[C@H](OC)[C@H]2O[C@@](O)(C(=O)C(=O)N3CCCC[C@H]3C(=O)O[C@H](/C(C)=C/[C@@H]3CC[C@@H](O)[C@H](OC)C3)[C@H](C)[C@@H](O)CC1=O)[C@H](C)C[C@@H]2OC [TAC, tacrolimus]	3184 fold	637 ± 73.5 µM (≈ 512 µg/mL)	600 µM (≈ 482 µg/mL)	Poor	0.2 ± 0.05 µM (≈ 0.161 µg/mL)	2.9 mM	5600 µM	remained stable during the 5 months	–	–	No	large percentage of skin deposition in the dermis	< 3 ng/mL
